Assays:
[1] = thought to be due to increased fluid retention and fat accumulation; cited from earlier work
[2] = tested on: glycosylated hemoglobin (HbA1C); assay: Phase II clinical trial CV168-006: glycosylated hemoglobin (HbA1C) by GRL SNP1 (Asn363Ser) genotype; assay type: in vivo, human; conditions: patients treated with 20 mg in CV168-006; data up to 24 weeks
Protocol: (§1) Genomic DNA samples from patients enrolled in two Bristol-Myers Squibb Company Phase II clinical trial CV168-006 were genotyped for 1 SNP identified in the human GRL gene (see Example 7) and evaluated for association with weight gain.
(§2) 498 subjects enrolled in the CV168-006 trial were analyzed in this study. All analyses were based on data collected up to 24 weeks, which was the duration of the short-term phase of the trials. DNA was extracted from frozen blood by a third-party (Genaissance Inc, North Carolina) using a salting-out method (Gentra Systems). All subjects gave written informed consent.
(§3) The influence on SNP1 on weight gain and the probability of achieving lower levels of glycosylated hemoglobin (HbA1C) was assessed using ANOVA (GRL; P=0.005; P=0.007; respectively).
(§4) Genotyping was performed using the 5′ nuclease assay, essentially as described (Ranade K et al., Genome Research 11: 1262-1268 (2001); which is hereby incorporated by reference herein in its entirety), with the following modifications: six nanograms of genomic DNA were used in a 8 ul reaction. All PCR reactions were performed in an ABI 9700 machine and fluorescence was measured using an ABI 7900 machine. […]
(§5) Statistical Analyses. The influence of the SNP on weight gain and decreased glycosylated hemoglobin (HbA1C) was assessed using ANOVA. […]

[3] = Phase II clinical trial CV168-006: weight gain by GRL SNP1 (Asn363Ser) genotype; assay type: in vivo, human; conditions: patients treated with 20 mg in CV168-006; data up to 24 weeks
Protocol: as §1, §2, §3, §4, §5

[4] = Phase II clinical trial CV168-006: weight gain by PPAR-alpha SNP1 (Leu162Val) genotype; assay type: in vivo, human
Protocol: Genomic DNA samples from patients enrolled in a Bristol-Myers Squibb Company Phase II clinical trial CV168-006 trial were genotyped for 1 SNP identified in the human PPAR-alpha gene (see Example 1) and evaluated for association with weight gain.
as §2
Genotyping was performed using the 5′ nuclease assay, essentially as described (Ranade K et al., Genome Research 11: 1262-1268 (2001); which is hereby incorporated by reference herein in its entirety), with the following modifications: six nanograms of genomic DNA were used in a 8 ul reaction. All PCR reactions were performed in an ABI 9700 machine and fluorescence was measured using an ABI 7900 machine.
The association between weight gain and the single nucleotide polymorphisms of the present invention were investigated by applying statistical analysis to the results of the genotyping assays described elsewhere herein. […]
Statistical Analyses. The influence of the SNP on weight gain was assessed using ANOVA. […]

Row | Compound | weight gain (side effect) [1] | influence of GRL SNP1 on lower levels of glycosylated hemoglobin (HbA1C), P (ANOVA) [2] | influence of GRL SNP1 on weight gain, P (ANOVA) [3] | weight gain, carriers of the Valine allele vs homozygous Leucine allele (PPARα residue 162) ([4]; patients of a Phase II trial, Val carriers compared with Leu/Leu) | influence of PPAR-alpha SNP1 on weight gain, P (ANOVA) ([4]; patients treated with 20 mg in CV168-006, data up to 24 weeks)
1 | CN(CCOc1ccc(CC2SC(=O)NC2=O)cc1)c1ccccn1 (stereo not shown) [rosiglitazone] | can cause weight gain in some individuals | – | – | – | –
2 | CCc1ccc(CCOc2ccc(CC3SC(=O)NC3=O)cc2)nc1 (stereo not shown) [pioglitazone] | can cause weight gain in some individuals | – | – | – | –
3 | COc1ccc(OC(=O)N(CC(=O)O)Cc2ccc(OCCc3nc(-c4ccccc4)oc3C)cc2)cc1 [Compound A, N-[(4-methoxyphenoxy)carbonyl]-N-[[4-[2-(5-methyl-2-phenyl-4-oxazolyl)ethoxy]phenyl]methyl]glycine] | result in weight gain | 0.007 | 0.005 | gained significantly less weight | 0.039

— US20070202512A1, “Human single nucleotide polymorphisms associated with dose-dependent weight gain and methods of use thereof” (Bristol-Myers Squibb Company, priority 2005, published 2007)
